According to ChEMBL document CHEMBL4837206, “Synthesis and biological evaluation of novel isoxazole-piperazine hybrids as potential anti-cancer agents with inhibitory effect on liver cancer stem cells” (Eur J Med Chem, 2021):
The source made the active and inactive calls. The rule behind the calls is not given here.

Assays:
[1] = test system: MCF7; assay: Antiproliferative activity against human MCF7 cells assessed as reduction in cell viability measured after 72 hrs by SRB assay; type: functional, cell-based; details: MCF7, 72 h
[2] = test system: Huh-7; assay: Antiproliferative activity against human Huh-7 cells assessed as reduction in cell viability measured after 72 hrs by SRB assay; type: functional, cell-based; details: Huh-7, 72 h
[3] = test system: Mahlavu; assay: Antiproliferative activity against human Mahlavu cells assessed as reduction in cell viability measured after 72 hrs by SRB assay; type: functional, cell-based
[4] = test system: Huh-7; assay: Inhibition of cell stemness in human Huh-7 cells assessed as CD133+/EpCAM+ expression at 10 uM measured after 72 hrs by flow cytometry analysis (reference value: 29.92%); type: functional; set-up: scale not given: the % may be the effect or the level left
[5] = test system: Huh-7; assay: Inhibition of cell stemness in human Huh-7 cells assessed as reduction in size of tumor spheres at 10 uM incubated for 72 hrs followed by incubation in sphere formation medium for 7 days by microscopic analysis; type: functional, cell-based; details: time 10.0 day
[6] = test system: Huh-7; assay: Inhibition of cell stemness in human Huh-7 cells assessed as reduction in tumor spheres count at 10 uM incubated for 72 hrs followed by incubation in sphere formation medium for 7 days by microscopic analysis; type: functional, cell-based; details: time 10.0 day
[7] = test system: Huh-7; assay: Inhibition of cell stemness in human Huh-7 cells assessed as reduction in size of tumor spheres at 10 uM incubated for 72 hrs followed by incubation in sphere formation medium for 14 days by microscopic analysis; type: functional, cell-based; details: time 17.0 day
[8] = Upregulation of NANOG mRNA expression in human Mahlavu cells at 10 uM incubated for 72 hrs by RT-qPCR analysis relative to control; type: functional
[9] = test system: Huh-7; assay: Upregulation of NANOG mRNA expression in human Huh-7 cells at 10 uM incubated for 72 hrs by RT-qPCR analysis; type: functional, cell-based
[10] = test system: Mahlavu; assay: Upregulation of OCT4 mRNA expression in human Mahlavu cells at 10 uM incubated for 72 hrs by RT-qPCR analysis; type: functional, cell-based
[11] = test system: Huh-7; assay: Upregulation of OCT4 mRNA expression in human Huh-7 cells at 10 uM incubated for 72 hrs by RT-qPCR analysis; type: functional, cell-based
[12] = test system: Mahlavu; assay: Upregulation of OCT4 level in human Mahlavu cells at 10 uM measured after 72 hrs by flow cytometry analysis; type: functional, cell-based

Row | IC50 [1] [nM] | IC50 [2] [nM] | Structure (SMILES) | IC50 [3] [nM] | also measured
1 | 2800 | 1500 | CC(C)(C)OC(=O)N1CCC(NCc2cc(-c3ccc(OCc4cccc(C#N)c4)cc3)on2)CC1 | 3000 | 
2 | 4000 | 5000 | Cc1cccc(COc2ccc(-c3cc(CN4CCN(Cc5ccc(C(F)(F)F)cc5)CC4)no3)cc2)c1 | 2500 | 
3 | 2000 | 2200 | N#Cc1cccc(COc2ccc(-c3cc(CN4CCN(c5ccc(C(F)(F)F)cc5)CC4)no3)cc2)c1 | 2700 | 
4 | 1200 | 1500 | Cc1ccc(COc2ccc(-c3cc(CN4CCN(Cc5ccc(C(F)(F)F)cc5)CC4)no3)cc2)cc1 | 7500 | 
5 | 1800 | 500 | COc1cc(COc2ccc(-c3cc(CN4CCN(Cc5ccc(C(F)(F)F)cc5)CC4)no3)cc2)cc(OC)c1OC | 5800 | 
6 | 1300 | 3200 | COc1ccc(COc2ccc(-c3cc(CN4CCN(Cc5ccc(C(F)(F)F)cc5)CC4)no3)cc2)cc1 | 4900 | 
7 | 3800 | 2200 | N#Cc1cccc(COc2ccc(-c3cc(CN4CCN(C(=O)C5CCCO5)CC4)no3)cc2)c1 (stereo not given) | 4100 | 
8 | 7600 | 2800 | N#Cc1cccc(COc2ccc(-c3cc(CN4CCN(C(=O)C5CC5)CC4)no3)cc2)c1 | 4400 | 
9 | 100 | 1500 | COc1cc(COc2ccc(-c3cc(CN4CCN(Cc5ccc(C(F)(F)F)cc5)CC4)no3)cc2)cc(OC)c1 | 4300 | 
10 | 2500 | 1300 | Fc1cccc(COc2ccc(-c3cc(CN4CCN(Cc5ccc(C(F)(F)F)cc5)CC4)no3)cc2)c1 | 2900 | 
11 | 4000 | 5000 | N#Cc1ccccc1COc1ccc(-c2cc(CN3CCN(Cc4ccc(C(F)(F)F)cc4)CC3)no2)cc1 | 3500 | 
12 | 3800 | 6100 | CC(C)(C)OC(=O)N1CCN(Cc2cc(-c3ccc(OCc4cccc(C#N)c4)cc3)on2)CC1 | 5600 | 
13 | 3700 | 1200 | Cc1ccccc1COc1ccc(-c2cc(CN3CCN(Cc4ccc(C(F)(F)F)cc4)CC3)no2)cc1 | 6800 | 
14 | 3000 | 1500 | Fc1ccccc1COc1ccc(-c2cc(CN3CCN(Cc4ccc(C(F)(F)F)cc4)CC3)no2)cc1 | 3100 | 
15 | 2800 | 1000 | FC(F)(F)c1ccc(CN2CCN(Cc3cc(-c4ccc(OCc5ccccc5Cl)cc4)on3)CC2)cc1 | 3200 | 
16 | 2000 | 800 | COc1cccc(COc2ccc(-c3cc(CN4CCN(Cc5ccc(C(F)(F)F)cc5)CC4)no3)cc2)c1 | 1400 | 
17 | 1400 | 2400 | N#Cc1cccc(COc2ccc(-c3cc(CN4CCN(Cc5ccccc5F)CC4)no3)cc2)c1 | 2300 | 
18 | 1400 | 1700 | N#Cc1cccc(COc2ccc(-c3cc(CN4CCN(c5ccc(C(F)(F)F)cn5)CC4)no3)cc2)c1 | 1300 | 
19 |  |  | CNC(=O)c1cc(Oc2ccc(NC(=O)Nc3ccc(Cl)c(C(F)(F)F)c3)cc2)ccn1 [SORAFENIB] |  | Activity [4]: 36.16%; inhibition [5]: Active; inhibition [6]: inactive; inhibition [7]: inactive; fold change (FC) [8]: 10; Activity [9]: Active; Activity [10]: Active; Activity [11]: Active; Activity [12]: Active

Row | IC50 [1] [nM] | IC50 [2] [nM] | Structure (SMILES) | IC50 [3] [nM] | also measured
20 | 300 | 900 | COc1ccccc1COc1ccc(-c2cc(CN3CCN(Cc4ccc(C(F)(F)F)cc4)CC3)no2)cc1 | 3900 | 
21 | 2500 | 2500 | N#Cc1cccc(COc2ccc(-c3cc(CNC4CCN(Cc5ccccc5)CC4)no3)cc2)c1 | 2100 | 
22 | 1200 | 400 | N#Cc1cccc(COc2ccc(-c3cc(CN4CCN(Cc5ccc(C(F)(F)F)cc5)CC4)no3)c(F)c2)c1 | 400 | 
23 | 1600 | 600 | Cc1cc(C)cc(COc2ccc(-c3cc(CN4CCN(Cc5ccc(C(F)(F)F)cc5)CC4)no3)cc2)c1 | 6000 | 
24 | 1900 | 2000 | N#Cc1cccc(COc2ccc(-c3cc(CN4CCN(C(=O)c5ccco5)CC4)no3)cc2)c1 | 2200 | 
25 | 7900 | 2000 | Fc1ccc(COc2ccc(-c3cc(CN4CCN(Cc5ccc(C(F)(F)F)cc5)CC4)no3)cc2)cc1 | 3100 | 
26 | 1800 | 1600 | N#Cc1cccc(COc2ccc(-c3cc(CN4CCN(Cc5ccc(F)cc5)CC4)no3)cc2)c1 | 1500 | 
27 | 2700 | 2300 | N#Cc1cccc(COc2ccc(-c3cc(CNC4CCN(Cc5ccccc5)CC4)no3)cc2F)c1 | 2700 | 
28 | 2400 | 2700 | N#Cc1cccc(COc2ccc(-c3cc(CN4CCN(Cc5cccc(F)c5)CC4)no3)cc2)c1 | 2600 | 
29 | 1500 | 8100 | N#Cc1cccc(COc2ccc(-c3cc(CN4CCN(C(=O)c5ccco5)CC4)no3)cc2F)c1 | 3600 | 
30 | 700 | 600 | Cc1cc(-c2cc(CN3CCN(Cc4ccc(C(F)(F)F)cc4)CC3)no2)ccc1OCc1cccc(C#N)c1 | 450 | 
31 | 100 | 1000 | N#Cc1ccc(COc2ccc(-c3cc(CN4CCN(Cc5ccc(C(F)(F)F)cc5)CC4)no3)cc2)cc1 | 4300 | 
32 | 6700 | 4000 | FC(F)(F)c1ccc(CN2CCN(Cc3cc(-c4ccc(OCc5ccc(Cl)cc5)cc4)on3)CC2)cc1 | 3700 | 
33 | 1400 | 200 | FC(F)(F)c1ccc(CN2CCN(Cc3cc(-c4ccc(OCc5cccc(Cl)c5)cc4)on3)CC2)cc1 | 4100 | 
34 | 3500 | 2900 | N#Cc1cccc(COc2ccc(-c3cc(CN4CCN(CC5CC5)CC4)no3)cc2)c1 | 3200 | 
35 | 800 | 100 | N#Cc1cccc(COc2ccc(-c3cc(CN4CCN(Cc5ccc(C(F)(F)F)cc5)CC4)no3)cc2)c1 | 10600 | 
36 | 400 | 1500 | Cc1cc(OCc2cccc(C#N)c2)ccc1-c1cc(CN2CCN(Cc3ccc(C(F)(F)F)cc3)CC2)no1 | 500 | 
37 | 8400 | 4200 | N#Cc1cccc(COc2ccc(-c3cc(CN4CCN(CC5CCCO5)CC4)no3)cc2)c1 (stereo not given) | 4800 | 
38 | 2400 | 1500 | N#Cc1cccc(COc2ccc(-c3cc(CN4CCN(c5ccc(F)cc5)CC4)no3)cc2)c1 | 2200 | 
